Assay results: BindingDB's records for doi:10.1021/jm000468c (Abbott Laboratories, 2001)

Experiment: Inhibitory activity was determined against Neuraminidase A from influenza virus A/Tokyo/3/67

Row | SMILES | IC50 [µM]
1 | CCC(CC)C(=O)N1C[C@H](N)[C@H](C(=O)O)C1 [4-Amino-1-(2-ethyl-butyryl)-pyrrolidine-3-carboxylic acid] | 22
2 | CCN(C(=O)N1C[C@H](N)[C@H](C(=O)O)C1)C(C)C [4-Amino-1-(ethyl-isopropyl-carbamoyl)-pyrrolidine-3-carboxylic acid] | 1.6
3 | CC(C)N(C(=O)N1C[C@H](N)[C@H](C(=O)O)C1)C(C)C [4-Amino-1-diisopropylcarbamoyl-pyrrolidine-3-carboxylic acid] | 4
4 | CC(C)N(CCCN)C(=O)N1C[C@H](N)[C@H](C(=O)O)C1 [4-Amino-1-[(3-amino-propyl)-isopropyl-carbamoyl]-pyrrolidine-3-carboxylic acid] | 46
5 | CCN(CC)C(=O)N1C[C@H](N)[C@H](C(=O)O)C1 [4-Amino-1-diethylcarbamoyl-pyrrolidine-3-carboxylic acid] | 25
6 | CC(C)N(CCO)C(=O)N1C[C@H](N)[C@H](C(=O)O)C1 [4-Amino-1-[(2-hydroxy-ethyl)-isopropyl-carbamoyl]-pyrrolidine-3-carboxylic acid] | 21
7 | CC(C)N(CCCC(=O)O)C(=O)N1C[C@H](N)[C@H](C(=O)O)C1 [4-Amino-1-[(3-carboxy-propyl)-isopropyl-carbamoyl]-pyrrolidine-3-carboxylic acid] | 19
8 | CCN(C(=O)N1C[C@@H](C(=O)O)[C@@H](N)[C@@H]1CNC(C)=O)C(C)C [5-(Acetylamino-methyl)-4-amino-1-(ethyl-isopropyl-carbamoyl)-pyrrolidine-3-carboxylic acid] | 7.5
9 | CCCN(CCC)C(=O)N1C[C@H](N)[C@H](C(=O)O)C1 [4-Amino-1-dipropylcarbamoyl-pyrrolidine-3-carboxylic acid] | 32
10 | CC(C)N(CCCCCO)C(=O)N1C[C@H](N)[C@H](C(=O)O)C1 [4-Amino-1-[(5-hydroxy-pentyl)-isopropyl-carbamoyl]-pyrrolidine-3-carboxylic acid] | 2
11 | CC(C)N(C(=O)N1C[C@H](C(=O)O)[C@H](N=C(N)N)C1)C(C)C [1-Diisopropylcarbamoyl-4-guanidino-pyrrolidine-3-carboxylic acid] | 13
12 | CC(C)(C)OC(=O)N1C[C@@H](N)[C@@H](C(=O)O)C1 [A-87380] | 50
13 | CC(C)N(CCCO)C(=O)N1C[C@H](N)[C@H](C(=O)O)C1 [4-Amino-1-[(3-hydroxy-propyl)-isopropyl-carbamoyl]-pyrrolidine-3-carboxylic acid] | 2.1
14 | CC(C)N(CCCCC(=O)O)C(=O)N1C[C@H](N)[C@H](C(=O)O)C1 [4-Amino-1-[(4-carboxy-butyl)-isopropyl-carbamoyl]-pyrrolidine-3-carboxylic acid] | 1.3
15 | CC(C)N(CCc1ccccn1)C(=O)N1C[C@H](N)[C@H](C(=O)O)C1 [4-Amino-1-[isopropyl-(2-pyridin-2-yl-ethyl)-carbamoyl]-pyrrolidine-3-carboxylic acid] | 1.3
